# Reference: patent US9714260B2, “Asymmetrical Si rhodamine and rhodol synthesis” (THE UNIVERSITY OF TOKYO, priority 2013, dated 2017)
# Legend:
# [1] = Optical characteristics of dyes in phosphate buffered saline of pH 7.4; format: physicochemical
# [2] = Optical characteristics / pH profile of O-Me-Si-Rhodol (Compound 8); format: physicochemical
# Procedure: The pH profile of the absorbance and fluorescence spectra of O-Me-Si-Rhodol (Compound 8) was examined. Measurement was carried out at various pH levels in 0.1M sodium phosphate solution containing 10% DMSO. The excitation wavelength was 503 nm.
# [3] = Optical characteristics / pH profile of Si-Rhodol (Compound 7); format: physicochemical
# Procedure: The pH profile of the absorbance and fluorescence spectra of Si-Rhodol (Compound 7) was examined. Measurement was carried out at various pH in 0.1M sodium phosphate solution containing 1% DMSO. The excitation wavelengths were 507 nm (FIG. 13) and 584 nm (FIG. 14).
# [4] = Absorbance and fluorescence of Compound 6 in various solvents; format: physicochemical
# Procedure: Next, the absorbance and fluorescence spectra of Ac-IndoSiR (Compound 6) in various solvents were measured. […] The excitation wavelength was 540 nm. The maximum absorbance fluorescence wavelength, molar absorbance coefficient, and fluorescence quantum yield of Compound 6 in various solvents are shown in Table 5. The fluorescence quantum yield (ΦFl=0.44; determined using an absolute fluorescence quantum yield measurement device) of Compound 6 in chloroform was used as the fluorescence reference to determine the fluorescence quantum yield in various solvents.
# [5] = Fluorescence quantum yield of Compound 5 in various solvents; format: physicochemical
# [6] = Optical characteristics of Compound 5 in pH 7.4 sodium phosphate; format: physicochemical; settings: 0.1 sodium phosphate pH 7.4, 0.3% DMSO
# Procedure: The fluorescence wavelength was 665 nm and the wavelength of the excitation light was 637 nm. The measurement was carried out in an aqueous solution of 0.1 sodium phosphate having a pH 7.4 and containing 0.3% DMSO. Cy 5.5 (ΦFl=0.23) in water was used as the fluorescence reference to determine the fluorescence quantum yield.
# [7] = Optical characteristics / pH profile of N-AcSi-Rhodol (Compound 9); format: physicochemical
# Procedure: Measurement was carried out at various pH in 0.1M sodium phosphate solution containing 10% DMSO. The excitation wavelength was 503 nm.
# [8] = tested on: rat liver microsomes; assay: In vitro experiment using rat liver microsomes (hypoxia vs normal oxygen); format: biochemical; settings: 1 μM compound, 226 μg rat liver microsomes, 50 μM NADPH; ex 640 nm, em 660 nm
# Text: The excitation wavelength was 640 nm and the fluorescence wavelength was 660 nm. In FIG. 26, Hyp is the measurement result for hypoxia and Nor is the measurement result for normal oxygen level.
# [9] = in methanol; cited from earlier work
# [10] = Absorbance and fluorescence profiles of Compounds 1-4 in pH 7.4 sodium phosphate; format: physicochemical; settings: pH 7.4 sodium phosphate buffer solution; for Absmax / Emmax / ε: 0.1% DMSO; for Φfl: cresyl violet in methanol as fluorescence reference
# Procedure: Absorbance and fluorescence profiles of 2-MeSiR620 (Compound 1) obtained in step (f) and 2-MeSiR620-a1 (Compound 2) obtained in step (i) were measured. Measurements were carried out in an aqueous solution of 0.1M sodium phosphate having a pH 7.4 and containing 0.1% DMSO. The wavelength of the excitation light in the fluorescence profile measurement was 620 nm for 2-MeSiR620 and 635 nm for 2-MeSiR620-a1.
# The absorbance and fluorescence spectra of 2-MeSiR630 (Compound 3) synthesized in step (b) and 2-MeSiR630-a1 (Compound 4) synthesized in step (d) were measured. Measurements were carried out in an aqueous solution of 0.1 sodium phosphate having a pH 7.4 and containing 0.1% DMSO. The excitation light in the fluorescence spectrum measurement was 633 nm for 2-MeSiR630 and 648 nm for 2-MeSiR630-a1.
# [11] = in water; cited from earlier work
# [12] = tested on: HL60 cells; assay: Cell-imaging experiment using HL60 cells; format: cell-based; settings: 1 μM probe, 1 mM H2O2 stimulation, 45 minutes
# Procedure: HL60 cells were cultured. […] The fluorescence image was observed thereafter.
# [13] = Optical characteristics of Compound 10 and predicted compound after reaction with active oxygen; format: physicochemical; settings: 1 μM in PBS (pH 7.4), 0.1% DMF
# Procedure: The absorbance and fluorescence spectra (left side of FIG. 19) of 1 μM of compound 10 in PBS (pH 7.4) containing 0.1% DMF as a cosolvent, the absorbance and fluorescence spectra (right side of FIG. 19) of the compound predicted to be generated following a reaction of compound 10 and 1 μM active oxygen, and the optical characteristics of each compound were measured (Table 9).
# [14] = Reactivity and selectivity of Compound 10 toward active-oxygen species
# Procedure: Next, an analysis was carried out using the HPLC of a reaction induced by an active-oxygen-species. […] A sample was subjected to HPLC linear gradient elution (eluate: A/B=60/40—10 minutes—0/100; flow rate=1.0 mL/minute). Next, the selectivity of active-oxygen species of compound 10 was examined. The conditions of various active-oxygen species were as follows. H2O2: […] ONOO^−: […] O2^−: […] Hydroxy radical: H2O2 (final 1 mM) and FeClO4 (final 100 μM) were added.
# [15] = 0.1M sodium phosphate, 10% DMSO
# [16] = 0.1M sodium phosphate, 10% DMSO, excitation 503 nm
molecule,measurement,setting,value
"Cc1cccc(C)c1C1=c2cc3c(cc2[Si](C)(C)c2cc(N)ccc21)=[N+](C)CC3 [Compound 13, diMeSiR650]",Φn (absolute fluorescence quantum yield measured using integrating spheres),[1],0.15
same,λabs. max,[1],637 nm
same,λfl. max,[1],670 nm
"COc1ccc2c(c1)[Si](C)(C)C1=CC(=N)C=CC1=C2c1ccccc1C [Compound 8, O-MeSi-Rhodol]",λabs,[2]; [15],503 nm
same,λem,[2]; [16],580 nm
same,λabs,"[2]; 0.1M sodium phosphate, 10% DMSO, listed as O-MeSi-Rhodol",~500 nm
same,absorption maximum (FIG. 16),[2]; FIG. 16,~600 nm
same,ΦFL,[2]; pH: 3.0,0.24 (pH: 3.0)
same,ΦFL,[2]; pH: 7.4,0.18 (pH: 7.4)
"Cc1ccccc1C1=C2C=CC(=O)C=C2[Si](C)(C)c2cc(N)ccc21 [Compound 7, Si-Rhodol]",ε,"[3]; 0.1M sodium phosphate, 1% DMSO","40,000 M^−1cm^−1"
same,λem,"[3]; 0.1M sodium phosphate, 1% DMSO",605 nm
same,absorption maximum (FIG. 14),"[3]; FIG. 14, excitation wavelength 584 nm",~600 nm
same,Φfl,[3]; pH: 3.0,0.28 (pH: 3.0)
same,λabs,[3]; pH: 3.0,507 (pH: 3.0) nm
same,Φfl,[3]; pH: 7.4,0.56 (pH: 7.4)
same,λabs,[3]; pH: 7.4,584 (pH: 7.4) nm
same,λabs,"[3]; pH: 7.4, listed as Si-Rhodol",~580 nm
"CC(=O)Nc1ccc2c(c1)[Si](C)(C)c1cc3c(cc1=C2c1ccccc1C)CC[N+]=3C [Compound 6, Ac-IndoSiR]",Absmax,[4]; Acetone,532 nm
same,Emmax,[4]; Acetone,641 nm
same,ΦFl,[4]; Acetone,0.15
same,ε,[4]; Acetone,"27,000 M^−1cm^−1"
same,Absmax,[4]; Benzene,644 nm
same,Emmax,[4]; Benzene,665 nm
same,ΦFl,[4]; Benzene,0.26
same,ε,[4]; Benzene,"34,000 M^−1cm^−1"
same,Absmax,[4]; CH2Cl2,552 nm
same,Emmax,[4]; CH2Cl2,641 nm
same,ΦFl,[4]; CH2Cl2,0.27
same,ε,[4]; CH2Cl2,"33,000 M^−1cm^−1"
same,Absmax,[4]; CH3CN,529 nm
same,Emmax,[4]; CH3CN,636 nm
same,ΦFl,[4]; CH3CN,0.16
same,ε,[4]; CH3CN,"29,000 M^−1cm^−1"
same,Absmax,[4]; CHCl3,623 nm
same,Emmax,[4]; CHCl3,652 nm
same,ε,[4]; CHCl3,"36,000 M^−1cm^−1"
same,ΦFl,"[4]; CHCl3, absolute fluorescence quantum yield measurement device",0.44
same,Absmax,[4]; DMF,536 nm
same,Emmax,[4]; DMF,645 nm
same,ΦFl,[4]; DMF,0.19
same,ε,[4]; DMF,"9,000 M^−1cm^−1"
same,Absmax,[4]; DMSO,534 nm
same,Emmax,[4]; DMSO,651 nm
same,ΦFl,[4]; DMSO,0.12
same,ε,[4]; DMSO,"30,000 M^−1cm^−1"
same,Absmax,[4]; MeOH,526 nm
same,Emmax,[4]; MeOH,637 nm
same,ΦFl,[4]; MeOH,0.10
same,ε,[4]; MeOH,"27,000 M^−1cm^−1"
same,Absmax,[4]; NaPi buffer (pH 7.4),500 nm
same,Emmax,[4]; NaPi buffer (pH 7.4),630 nm
same,ΦFl,[4]; NaPi buffer (pH 7.4),0.06
same,ε,[4]; NaPi buffer (pH 7.4),"29,000 M^−1cm^−1"
same,Absmax,[4]; THF,559 nm
same,Emmax,[4]; THF,654 nm
same,ΦFl,[4]; THF,0.18
same,ε,[4]; THF,"21,000 M^−1cm^−1"
same,Absmax,[4]; Toluene,644 nm
same,Emmax,[4]; Toluene,665 nm
same,ΦFl,[4]; Toluene,0.31
same,ε,[4]; Toluene,"32,000 M^−1cm^−1"
"Cc1ccccc1C1=c2cc3c(cc2[Si](C)(C)c2cc(N)ccc21)=[N+](C)CC3 [Compound 5, 2MeIndoSiR]",Φn (absolute fluorescence quantum yield measured using integrating spheres),[1],0.14
same,λabs. max,[1],637 nm
same,λfl. max,[1],664 nm
same,Fluorescence quantum yield ΦF1,[5]; 20% FBS,0.36
same,Fluorescence quantum yield ΦF1,[5]; Acetone,0.39
same,Fluorescence quantum yield ΦF1,[5]; CH3CN,0.42
same,Fluorescence quantum yield ΦF1,[5]; CHCl3,0.89
same,Fluorescence quantum yield ΦF1,[5]; DMF,0.39
same,Fluorescence quantum yield ΦF1,[5]; DMSO,0.35
same,Fluorescence quantum yield ΦF1,[5]; FBS,0.35
same,Fluorescence quantum yield ΦF1,[5]; MeOH,0.46
same,ε,[6],54000 M⁻¹ cm⁻¹
same,λem,[6],665 nm
same,λex,[6],641 nm
same,Φfl,[6]; Cy 5.5 in water as reference,0.18
"CC(=O)Nc1ccc2c(c1)[Si](C)(C)C1=CC(=O)C=CC1=C2c1ccccc1C [Compound 9, N-AcSi-Rhodol]",λabs,[7]; [15],455 nm
same,λem,[7]; [16],590 nm
same,λabs,"[7]; 0.1M sodium phosphate, 10% DMSO, listed as N-AcSi-Rhodol",~450 nm
same,ΦFL,[7]; pH: 7.4,0.17 (pH: 7.4)
same,ε,[7]; pH: 10.0,7000 (pH: 10.0) M^−1cm^−1
"Cc1cccc(C)c1C1=c2cc3c(cc2[Si](C)(C)c2cc(/N=N/c4ccc(N(C)C)cc4)ccc21)=[N+](C)CC3 [Compound 14, diMeazoSiR650]",Φn (absolute fluorescence quantum yield measured using integrating spheres),[1],0.002
same,λabs. max,[1],587 nm
same,change in fluorescence intensity in a hypoxic environment,[8],dramatic increase in fluorescence intensity
Cresyl violet,Φfl of fluorescence reference,[9],^bCresyl violet in methanol (Φfl = 0.54) was used as the fluorescence reference
"CNc1ccc2c(c1)[Si](C)(C)C1=CC(=[N+](C)C)C=CC1=C2c1ccccc1C [Compound 3, 2-MeSiR630]",Absmax,[10],633 nm
same,Emmax,[10],649 nm
same,ε,[10],"120,000 M^−1cm^−1"
same,Φfl,[10],0.11
"Cc1ccccc1C1=C2C=CC(=[N+](C)C)C=C2[Si](C)(C)c2cc(N(C)CCCC(=O)O)ccc21 [Compound 4, 2-MeSiR630-a1]",Absmax,[10],648 nm
same,Emmax,[10],666 nm
same,ε,[10],"140,000 M^−1cm^−1"
same,Φfl,[10],0.30
CCN1\C(=C/C=C/C=C/C2=[N+](CCCCCC(=O)O)c3ccc4c(S(=O)(=O)O)cc(S(=O)(=O)O)cc4c3C2(C)C)C(C)(C)c2c1ccc1c(S(=O)(=O)[O-])cc(S(=O)(=O)O)cc21 [Cy 5.5],ΦFl of fluorescence reference,[11],0.23
"Cc1ccccc1C1=c2cc3c(cc2[Si](C)(C)c2cc(/N=N/c4ccc(N(C)C)cc4)ccc21)=[N+](C)CC3 [Compound 11, 2MeazoSiR650]",Φn (absolute fluorescence quantum yield measured using integrating spheres),[1],<0.001
same,λabs. max,[1],590 nm
same,change in fluorescence intensity in a hypoxic environment,[8],dramatic increase in fluorescence intensity
2-MeSiR620 [Compound 1],Absmax,[10],620 nm
same,Emmax,[10],638 nm
same,ε,[10],"96,000 M^−1cm^−1"
same,Φfl,[10],0.21
"CC/[N+](=C1\C=CC2=C(c3ccccc3C)c3cc4c(cc3[Si](C)(C)C2=C1)N(C)CC4)c1ccc(O)cc1 [Compound 10, 2MeIndo-N-ethyl-phenol-SiR]",increase in fluorescence inside cells relative to no stimulation,[12],about four
same,Absmax,[13],670 nm
same,selectivity of active-oxygen species,"[14]; H2O2, −OCl, ONOO−, O2−, hydroxy radical",reacted selectively with ^−OCl and ONOO^−
same,"reaction with −OCl (HPLC, ESI-MS analysis)",[14]; −OCl,produce the predicted reactant
same,increase in fluorescence after reaction with active-oxygen species,[14]; −OCl and ONOO−,100 times
